The numbers were not newly measured in patent US7550593B2, “Process for the preparation of finasteride Form I” (Cipla Limited, priority 2003, dated 2009), which cites them from elsewhere.

The test system of the data set is serum DHT concentration. The settings on record: within 24 hours of oral dosing with a 1 mg tablet.

`CC(C)(C)NC(=O)[C@H]1CC[C@H]2[C@@H]3CC[C@H]4NC(=O)C=C[C@]4(C)[C@H]3CC[C@]12C` [Finasteride, 17β-(N-t-butylcarbamoyl)-4-aza-5-alpha-androst-1-ene-3-one]: the “suppression of serum DHT concentration” value was 65%.
